{"source": "the supplement of paper PMC8967900"}
{"tested_on": "JURKAT", "experiment": "selective drug sensitivity score (sDSS, relative to normal bone marrow) (sDSS (score)); higher = more potent and effective on the cell line relative to normal bone marrow cells", "conditions": "72 h"}
{"smiles": "C/C=C1\\NC(=O)[C@H]2CSSCC/C=C/[C@H](CC(=O)N[C@H](C(C)C)C(=O)N2)OC(=O)[C@H](C(C)C)NC1=O", "note": "[Romidepsin] (top concentration 1000 nM)", "selective drug sensitivity score": 2.06}
{"smiles": "CN(C)CCOc1ccc(/C(=C(/CCCl)c2ccccc2)c2ccccc2)cc1", "note": "[Toremifene] (top concentration 10000 nM)", "selective drug sensitivity score": -0.42}
{"smiles": "CCCCc1nc2cc(/C=C/C(=O)NO)ccc2n1CCN(CC)CC", "note": "[Pracinostat] (top concentration 10000 nM)", "selective drug sensitivity score": 2.48}
{"smiles": "Cn1ncc(Cl)c1-c1cc(C(=O)N[C@H](CN)Cc2cccc(F)c2)sc1Cl", "note": "[Afuresertib] (top concentration 1000 nM)", "selective drug sensitivity score": 3.86}
{"smiles": "Cc1cc(-c2nc(-c3ccc(OC(F)(F)F)cc3)no2)nn1Cc1ccnc(N2CCN(C3CC3)CC2)c1", "note": "[BAY_87-2243] (top concentration 1000 nM)", "selective drug sensitivity score": 30.1}
{"smiles": "CNc1nc(-c2ccc3c(N)n[nH]c3c2)cc(N2C[C@@H](C(=O)NC3CCCCC3)CC[C@H]2C)n1", "note": "(top concentration 10000 nM)", "selective drug sensitivity score": -0.14}
{"smiles": "CN1CC[C@H](c2c(O)cc(O)c3c(=O)cc(-c4ccccc4Cl)oc23)[C@H](O)C1", "note": "[Alvocidib] (top concentration 10000 nM)", "selective drug sensitivity score": -2.6}
{"smiles": "Cc1cc2c(C(C)C)c(O)c(O)c(C=O)c2c(O)c1-c1c(C)cc2c(C(C)C)c(O)c(O)c(C=O)c2c1O", "note": "[AT-101] (top concentration 100000 nM)", "selective drug sensitivity score": 4.28}
{"smiles": "Cc1ccc(C(=O)Nc2cccc(C(F)(F)F)c2)cc1Nc1nc(-c2cccnc2)nc2c1cnn2C", "note": "[NVP-BHG712] (top concentration 10000 nM)", "selective drug sensitivity score": 2.98}
{"smiles": "COC[C@H](NC(=O)c1cnc(C)s1)C(=O)N[C@@H](COC)C(=O)N[C@@H](Cc1ccccc1)C(=O)[C@@]1(C)CO1", "note": "[Oprozomib] (top concentration 2500 nM)", "selective drug sensitivity score": 0.3}
{"smiles": "Cc1ccc(C(=O)N(CCCN)[C@@H](c2oc3cc(Cl)ccc3c(=O)c2Cc2ccccc2)C(C)C)cc1", "note": "(top concentration 100 nM)", "selective drug sensitivity score": 2.96}
{"smiles": "CCn1c(C(=O)N(C2CC2)C2CC2)cc2c3c(ncn3C)c(Nc3cc(C)n(C)n3)nc21", "note": "(top concentration 10000 nM)", "selective drug sensitivity score": -4.36}
{"smiles": "Nc1nc(Cl)nc2c1ncn2[C@@H]1O[C@H](CO)[C@@H](O)[C@@H]1F", "note": "[Clofarabine] (top concentration 10000 nM)", "selective drug sensitivity score": 1.9}
{"smiles": "Cc1ccc(C(=O)Nc2ccc(Oc3cc4cnn(C)c4cc3-c3cn[nH]c3)c(F)c2)c(=O)n1-c1ccc(F)cc1", "note": "[Merestinib] (top concentration 1000 nM)", "selective drug sensitivity score": -0.62}
{"smiles": "Nc1ncn([C@@H]2O[C@H](CO)[C@@H](O)[C@H]2O)c(=O)n1", "note": "[Azacitidine] (top concentration 10000 nM)", "selective drug sensitivity score": 4.04}
{"smiles": "CC(C)c1cc(-c2n[nH]c(=O)n2-c2ccc3c(ccn3C)c2)c(O)cc1O", "note": "[Ganetespib] (top concentration 1000 nM)", "selective drug sensitivity score": -2.46}
{"smiles": "C[C@]1(c2nc3c(C(N)=O)cccc3[nH]2)CCCN1", "note": "[Veliparib] (top concentration 10000 nM)", "selective drug sensitivity score": -3.28}
{"smiles": "CC(=O)Nc1cccc(-n2c(=O)n(C3CC3)c(=O)c3c(Nc4ccc(I)cc4F)n(C)c(=O)c(C)c32)c1", "note": "[Trametinib] (top concentration 250 nM)", "selective drug sensitivity score": -7.94}
{"tested_on": "KARPAS-45", "experiment": "selective drug sensitivity score (sDSS, relative to normal bone marrow) (sDSS (score)); higher = more potent and effective on the cell line relative to normal bone marrow cells", "conditions": "72 h"}
{"smiles": "C/C=C1\\NC(=O)[C@H]2CSSCC/C=C/[C@H](CC(=O)N[C@H](C(C)C)C(=O)N2)OC(=O)[C@H](C(C)C)NC1=O", "note": "[Romidepsin] (top concentration 1000 nM)", "selective drug sensitivity score": 2.86}
{"smiles": "CN(C)CCOc1ccc(/C(=C(/CCCl)c2ccccc2)c2ccccc2)cc1", "note": "[Toremifene] (top concentration 10000 nM)", "selective drug sensitivity score": 0.38}
{"smiles": "CCCCc1nc2cc(/C=C/C(=O)NO)ccc2n1CCN(CC)CC", "note": "[Pracinostat] (top concentration 10000 nM)", "selective drug sensitivity score": 9.78}
{"smiles": "Cn1ncc(Cl)c1-c1cc(C(=O)N[C@H](CN)Cc2cccc(F)c2)sc1Cl", "note": "[Afuresertib] (top concentration 1000 nM)", "selective drug sensitivity score": 3.06}
{"smiles": "Cc1cc(-c2nc(-c3ccc(OC(F)(F)F)cc3)no2)nn1Cc1ccnc(N2CCN(C3CC3)CC2)c1", "note": "[BAY_87-2243] (top concentration 1000 nM)", "selective drug sensitivity score": 16.5}
{"smiles": "CNc1nc(-c2ccc3c(N)n[nH]c3c2)cc(N2C[C@@H](C(=O)NC3CCCCC3)CC[C@H]2C)n1", "note": "(top concentration 10000 nM)", "selective drug sensitivity score": -0.14}
{"smiles": "CN1CC[C@H](c2c(O)cc(O)c3c(=O)cc(-c4ccccc4Cl)oc23)[C@H](O)C1", "note": "[Alvocidib] (top concentration 10000 nM)", "selective drug sensitivity score": 2}
{"smiles": "Cc1cc2c(C(C)C)c(O)c(O)c(C=O)c2c(O)c1-c1c(C)cc2c(C(C)C)c(O)c(O)c(C=O)c2c1O", "note": "[AT-101] (top concentration 100000 nM)", "selective drug sensitivity score": 5.98}
{"smiles": "Cc1ccc(C(=O)Nc2cccc(C(F)(F)F)c2)cc1Nc1nc(-c2cccnc2)nc2c1cnn2C", "note": "[NVP-BHG712] (top concentration 10000 nM)", "selective drug sensitivity score": 3.48}
{"smiles": "COC[C@H](NC(=O)c1cnc(C)s1)C(=O)N[C@@H](COC)C(=O)N[C@@H](Cc1ccccc1)C(=O)[C@@]1(C)CO1", "note": "[Oprozomib] (top concentration 2500 nM)", "selective drug sensitivity score": 4.6}
{"smiles": "Cc1ccc(C(=O)N(CCCN)[C@@H](c2oc3cc(Cl)ccc3c(=O)c2Cc2ccccc2)C(C)C)cc1", "note": "(top concentration 100 nM)", "selective drug sensitivity score": 7.16}
{"smiles": "CCn1c(C(=O)N(C2CC2)C2CC2)cc2c3c(ncn3C)c(Nc3cc(C)n(C)n3)nc21", "note": "(top concentration 10000 nM)", "selective drug sensitivity score": -3.06}
{"smiles": "Nc1nc(Cl)nc2c1ncn2[C@@H]1O[C@H](CO)[C@@H](O)[C@@H]1F", "note": "[Clofarabine] (top concentration 10000 nM)", "selective drug sensitivity score": -22.6}
{"smiles": "Cc1ccc(C(=O)Nc2ccc(Oc3cc4cnn(C)c4cc3-c3cn[nH]c3)c(F)c2)c(=O)n1-c1ccc(F)cc1", "note": "[Merestinib] (top concentration 1000 nM)", "selective drug sensitivity score": -0.62}
{"smiles": "Nc1ncn([C@@H]2O[C@H](CO)[C@@H](O)[C@H]2O)c(=O)n1", "note": "[Azacitidine] (top concentration 10000 nM)", "selective drug sensitivity score": -1.16}
{"smiles": "CC(C)c1cc(-c2n[nH]c(=O)n2-c2ccc3c(ccn3C)c2)c(O)cc1O", "note": "[Ganetespib] (top concentration 1000 nM)", "selective drug sensitivity score": -0.26}
{"smiles": "C[C@]1(c2nc3c(C(N)=O)cccc3[nH]2)CCCN1", "note": "[Veliparib] (top concentration 10000 nM)", "selective drug sensitivity score": -4.18}
{"smiles": "CC(=O)Nc1cccc(-n2c(=O)n(C3CC3)c(=O)c3c(Nc4ccc(I)cc4F)n(C)c(=O)c(C)c32)c1", "note": "[Trametinib] (top concentration 250 nM)", "selective drug sensitivity score": -7.14}
{"tested_on": "KASUMI-2", "experiment": "selective drug sensitivity score (sDSS, relative to normal bone marrow) (sDSS (score)); higher = more potent and effective on the cell line relative to normal bone marrow cells", "conditions": "72 h"}
{"smiles": "C/C=C1\\NC(=O)[C@H]2CSSCC/C=C/[C@H](CC(=O)N[C@H](C(C)C)C(=O)N2)OC(=O)[C@H](C(C)C)NC1=O", "note": "[Romidepsin] (top concentration 1000 nM)", "selective drug sensitivity score": 5.06}
{"smiles": "CN(C)CCOc1ccc(/C(=C(/CCCl)c2ccccc2)c2ccccc2)cc1", "note": "[Toremifene] (top concentration 10000 nM)", "selective drug sensitivity score": 5.68}
{"smiles": "CCCCc1nc2cc(/C=C/C(=O)NO)ccc2n1CCN(CC)CC", "note": "[Pracinostat] (top concentration 10000 nM)", "selective drug sensitivity score": 12.5}
{"smiles": "Cn1ncc(Cl)c1-c1cc(C(=O)N[C@H](CN)Cc2cccc(F)c2)sc1Cl", "note": "[Afuresertib] (top concentration 1000 nM)", "selective drug sensitivity score": 10.2}
{"smiles": "Cc1cc(-c2nc(-c3ccc(OC(F)(F)F)cc3)no2)nn1Cc1ccnc(N2CCN(C3CC3)CC2)c1", "note": "[BAY_87-2243] (top concentration 1000 nM)", "selective drug sensitivity score": -8.66}
{"smiles": "CNc1nc(-c2ccc3c(N)n[nH]c3c2)cc(N2C[C@@H](C(=O)NC3CCCCC3)CC[C@H]2C)n1", "note": "(top concentration 10000 nM)", "selective drug sensitivity score": 7.26}
{"smiles": "CN1CC[C@H](c2c(O)cc(O)c3c(=O)cc(-c4ccccc4Cl)oc23)[C@H](O)C1", "note": "[Alvocidib] (top concentration 10000 nM)", "selective drug sensitivity score": -2.8}
{"smiles": "Cc1cc2c(C(C)C)c(O)c(O)c(C=O)c2c(O)c1-c1c(C)cc2c(C(C)C)c(O)c(O)c(C=O)c2c1O", "note": "[AT-101] (top concentration 100000 nM)", "selective drug sensitivity score": -0.32}
{"smiles": "Cc1ccc(C(=O)Nc2cccc(C(F)(F)F)c2)cc1Nc1nc(-c2cccnc2)nc2c1cnn2C", "note": "[NVP-BHG712] (top concentration 10000 nM)", "selective drug sensitivity score": 2.38}
